The target in one assay is T1, NOR1 (Homo sapiens, UniProt Q92570).
T1 construct: NOR1 (isoform alpha; uniprot entry: hNOR1–Q92570-1, residues 393–626); expressed in transfected cells; host or cells: HEK293T
T1 sequence (Q92570 393-626): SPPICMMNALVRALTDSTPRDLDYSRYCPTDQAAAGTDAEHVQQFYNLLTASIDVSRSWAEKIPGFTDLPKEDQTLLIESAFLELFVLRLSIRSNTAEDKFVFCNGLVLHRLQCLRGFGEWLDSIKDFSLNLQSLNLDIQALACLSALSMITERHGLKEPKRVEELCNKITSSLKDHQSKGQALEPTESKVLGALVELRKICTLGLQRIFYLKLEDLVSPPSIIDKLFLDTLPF
Description: Gal4-NOR1 hybrid reporter gene assay in HEK293T cells. Format: cell-based. Conditions: compared to 0.1% DMSO; mean ± SD. (In general: Reporter assays use an easily measured gene product as a stand-in for the process of interest.)

In another assay the target is T2, Gal4-VP16 (Human herpesvirus 1, UniProt P06492).
T2 construct: host or cells: HEK293T
Format: cell-based. Conditions: n ≥ 4.

In the next assay the target is T3, RXRα (Homo sapiens, UniProt P19793).
T3 construct: expressed in transfected cells; host or cells: HEK293T
T3 sequence (P19793 227-458 limits assumed): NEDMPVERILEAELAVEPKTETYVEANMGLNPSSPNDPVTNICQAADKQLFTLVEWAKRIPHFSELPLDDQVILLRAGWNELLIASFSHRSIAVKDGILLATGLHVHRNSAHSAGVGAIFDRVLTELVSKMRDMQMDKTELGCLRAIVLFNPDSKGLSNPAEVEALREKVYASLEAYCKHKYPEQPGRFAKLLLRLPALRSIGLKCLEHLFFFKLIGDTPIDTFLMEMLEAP
Description: Gal4-RXRα hybrid reporter gene assay (selectivity). Format: cell-based. Conditions: selectivity profiling; also described previously.

Assay [1] deals with T4, Nurr1 (Homo sapiens, UniProt P43354).
T4 construct: Nurr1 (uniprot entry: hNURR1–P43354, residues 360–598); expressed in transfected cells; host or cells: HEK293T
In words: Gal4-Nurr1 hybrid reporter gene assay in HEK293T cells. Format: cell-based. Conditions: HEK293T; mean ± SD; n≥3.

In another assay the target is T5, NBRE: Nurr1 monomer (Homo sapiens, UniProt P43354).
T5 construct: the activity of full-length human Nurr1 in cellular settings; host or cells: HEK293T
Description: Full-length Nurr1 reporter gene assay on NBRE response element. The format is cell-based. Conditions: full-length human Nurr1; HEK293T; mean ± SD.

Another assay deals with T6, NurRE: Nurr1 homodimer (Homo sapiens, UniProt P43354).
T6 construct: the activity of full-length human Nurr1 in cellular settings; host or cells: HEK293T
In words: Full-length Nurr1 reporter gene assay on NurRE response element. Format: cell-based. Conditions: full-length human Nurr1; HEK293T; mean ± SD.

The target of assay [2] is T7, DR5: Nurr1–RXRα heterodimer (Homo sapiens, UniProt P43354).
T7 construct: the activity of full-length human Nurr1 in cellular settings; host or cells: HEK293T
Description: Full-length Nurr1 reporter gene assay on DR5 response element. Format: cell-based. Conditions: full-length human Nurr1 and RXRα overexpressed; HEK293T; mean ± SD.

In another assay the target is T8, Nurr1 LBD homodimer (Homo sapiens, UniProt P43354).
T8 construct: Nurr1 (uniprot entry: P43354-1, residues 364–598); MBP-Asn10 linker (N, cleaved yes); His8-Tag (N, cleaved yes); His10-Tag (N, cleaved yes); made in house; host or cells: E. coli T7 express (with pGro7)
Description: Nurr1 homodimerization HTRF (GFP-Nurr1 LBD vs Tb-labeled Nurr1 LBD). The format is biochemical. As to conditions: cell-free; ligand 100 µM.

The next assay concerns the target T9, Nurr1–NCoR-1 interaction (Homo sapiens, UniProt P43354).
T9 construct: Nurr1 (uniprot entry: P43354-1, residues 364–598); His10-Tag (N, cleaved yes); made in house; host or cells: E. coli T7 express (with pGro7)
In words: Nurr1–NCoR-1 interaction HTRF (GFP-Nurr1 LBD titrated against Tb-labeled NCoR-1). The format is biochemical. Conditions: cell-free; ligand fixed at 100 µM. For orientation: TR-FRET usually uses a lanthanide donor and a delayed reading to cut background.

Assay [3] relates to Nurr1. On the set-up: method as in PMID 26124091. As to conditions: cited from earlier work.

The text below walks through data of PMC9814838, “The orphan nuclear receptor Nurr1 is responsive to non-steroidal anti-inflammatory drugs” (Communications Chemistry, 2020).

Each structure is given as a SMILES string. “Also recorded” adds a separate entry of the source.

As a reminder, the EC50 is the concentration at which the effect is half-maximal. A low value points to a more potent agent.

T9 sequence (P43354 364-598): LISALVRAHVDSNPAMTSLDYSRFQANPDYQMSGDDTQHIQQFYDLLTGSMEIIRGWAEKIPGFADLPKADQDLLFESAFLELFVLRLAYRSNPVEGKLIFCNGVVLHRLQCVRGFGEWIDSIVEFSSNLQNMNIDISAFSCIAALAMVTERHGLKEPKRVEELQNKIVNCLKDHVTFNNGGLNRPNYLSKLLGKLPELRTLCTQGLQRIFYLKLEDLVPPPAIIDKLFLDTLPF
T8 sequence (P43354 364-598): as above
T6 sequence (P43354 whole entry): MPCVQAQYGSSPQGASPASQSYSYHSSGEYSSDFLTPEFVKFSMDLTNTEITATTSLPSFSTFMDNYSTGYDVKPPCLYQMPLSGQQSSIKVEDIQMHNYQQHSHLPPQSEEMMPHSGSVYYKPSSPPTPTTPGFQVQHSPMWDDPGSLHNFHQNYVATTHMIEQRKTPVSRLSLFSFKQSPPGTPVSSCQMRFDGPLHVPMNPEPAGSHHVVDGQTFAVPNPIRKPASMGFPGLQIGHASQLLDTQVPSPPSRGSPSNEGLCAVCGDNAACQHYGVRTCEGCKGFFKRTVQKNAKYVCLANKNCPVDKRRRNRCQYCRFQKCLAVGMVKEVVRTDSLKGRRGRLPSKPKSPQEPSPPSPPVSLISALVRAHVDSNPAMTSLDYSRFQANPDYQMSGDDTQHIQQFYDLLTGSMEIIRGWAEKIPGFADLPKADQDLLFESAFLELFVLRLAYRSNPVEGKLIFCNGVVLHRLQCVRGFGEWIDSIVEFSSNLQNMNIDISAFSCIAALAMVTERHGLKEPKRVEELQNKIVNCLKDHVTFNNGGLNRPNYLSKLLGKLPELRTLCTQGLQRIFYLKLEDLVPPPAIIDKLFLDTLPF
T7 sequence (P43354 whole entry, one chain of several): as the sequence (P43354 whole entry) above
T5 sequence (P43354 whole entry): as above
T4 sequence (P43354 360-598): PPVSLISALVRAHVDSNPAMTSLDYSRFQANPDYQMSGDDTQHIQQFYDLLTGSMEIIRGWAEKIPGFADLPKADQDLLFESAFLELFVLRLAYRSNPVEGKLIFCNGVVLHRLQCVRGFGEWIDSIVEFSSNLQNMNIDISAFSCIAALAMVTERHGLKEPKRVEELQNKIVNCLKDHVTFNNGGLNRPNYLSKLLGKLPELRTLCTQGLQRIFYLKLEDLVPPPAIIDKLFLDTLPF
Description for Nurr1 LBD homodimer: Strength and modulation of the formation of the heterodimer composed of the LBDs of Nurr1 and RXRα was investigated by titration of GFP-RXRα LBD against a fixed concentration of Nurr1 LBD. Assay solutions were prepared in HTRF assay buffer supplemented with 0.1% (w/v) CHAPS as well as 1% DMSO with test compounds at 100 µM or DMSO alone as negative control. […] Free GFP was added to keep the total GFP content stable at 4 µM throughout the entire series in order to suppress artefacts from changes in degree of diffusion enhanced FRET. Samples were equilibrated at RT for 2 h before FI520 and FI620 were recorded after excitation at 340 nm, and the HTRF signal was calculated as described above.
Description for Nurr1–NCoR-1 interaction: Since ligand concentration was fixed in this setting, interference with the HTRF system is less prone to generate potential artifacts.
To maintain a constant GFP concentration, free GFP protein was added to the dilution series. The experiments were performed in HTRF assay buffer (150 mM KF, 25 mM HEPES pH 7.5 (KOH), 5% (w/v) Glycerol, supplemented with 0.1% (w/v) CHAPS and 5 mM DTT) with 1% DMSO in an assay volume of 20 µl. After 1 h incubation at RT, fluorescence intensities after excitation at 340 nm were recorded at 520 nm for GFP acceptor fluorescence and 620 nm for Tb-SA donor fluorescence and the HTRF signal was calculated as described above.

Take `O=C(O)CCc1nc(-c2ccccc2)c(-c2ccccc2)o1` [oxaprozin]: at NOR1, the NOR1 min./max. activation is given as ≥ 0.00. At Gal4-VP16, the “Control experiments on Gal4-VP16 (non-specific reporter effects)” value is “no non-specific reporter suppression”. Also, at RXRα, the RXR agonism entry is “weak RXR agonism”.

As to `CCN(CC)Cc1cc(Nc2ccnc3cc(Cl)ccc23)ccc1O` [AQ, amodiaquine], the EC50 was found to be 36 µM at Nurr1 [1], 92 µM at NBRE: Nurr1 monomer, 87 µM at NurRE: Nurr1 homodimer and 97 µM in assay [2]. Besides, the “Homodimerization (effect of ligand)” value at Nurr1 LBD homodimer is “promoted homodimerization; also recorded: Promotes dimerization”. Further, on Nurr1–NCoR-1 interaction, the “NCoR-1 affinity (effect of ligand)” value is “promoted the Nurr1–NCoR-1 interaction; also recorded: Enhances affinity”. Besides, the Nurr1 activation efficacy in the assay on Nurr1 [3] is ~ 3 fold.
